This assay concerns medulloblastoma D384 cells. The assay is described as follows: exoDNA yield in microvesicles after inhibition of DNA replication with L-mimosine. It counts as cell-based, human. Conditions: D384 cells treated with L-mimosine (200, 400 and 600 μM), microvesicles isolated from medium after 48 hrs, ssDNA yield compared to mock treated cells. How it is done: D384 cells were seeded in 6-well plates and treated with increasing dosages of L-mimosine (200, 400 and 600 μM) or mock treated. Microvesicles were isolated from the medium after 48 hrs and ssDNA was extracted using the Qiagen PCR purification kit. Single-stranded DNA yields were quantified using the Bioanalyzer and the yields were compared to mock treated cells (normalized to 1.0).
We used L-mimosine to inhibit DNA replication and examined whether the inhibition affected the yield of exoDNA. If the exoDNA yield is decreased after inhibition, it is very likely that exoDNA may contain fragments of genomic DNA.
Specifically, D384 cells were plated on 6-well plates (2×10^6 cells/well) and treated with increasing amounts (200, 400 and 600 μM) of L-mimosine (Sigma-Aldrich, St. Louis, Mo.) which is an inhibitor of DNA replication. The drug was added at one time point and 48 hrs after, the media was collected and processed for the isolation of microvesicles. Cell viability was assessed by cell count using the Countess Automated Cell Counter (Invitogen). SsDNA yields are normalized to one.

Turning to `N[C@@H](Cn1ccc(=O)c(O)c1)C(=O)O` [L-mimosine], the “decrease of exoDNA yield in microvesicles” value was “about 50%”.

Source of the values: US10793914B2, “Cancer-related biological materials in microvesicles” (THE GENERAL HOSPITAL CORPORATION, priority 2010, dated 2020).
